Assay results reported in patent US20040186089A1 (priority 2001, published 2004).
≈ marks a conversion by molar mass, not a printed value. Where “and” joins values, the source holds several entries; their conditions need not be identical. Equal entries are not always repeated.

Columns and labels:
[1] = test system: Bacillus anthracis ATCC 14578; assay type: cell-based; conditions: for MIC: unit assumed
Bacillus thuringiensis [2] = conditions: cited from earlier work
Bacillus anthracis [3] = conditions: in vivo; cited from earlier work
Bacillus cereus = assay type: cell-based
Bacillus thuringiensis [4] = assay type: cell-based
Bacillus anthracis [5] = conditions: cited from earlier work

Compound | MIC [1] [µg/mL] | susceptibility of Bacillus anthracis (Bacillus anthracis [5]) | also measured
CO[C@@]1(NC(=O)Cc2cccs2)C(=O)N2C(C(=O)O)=C(COC(N)=O)CS[C@@H]21 [Cefoxitin] | 6 (≈ 14 µM) | – | –
O=C(O)c1cn(C2CC2)c2cc(N3CCNCC3)c(F)cc2c1=O [Ciprofloxacin] | 0.064 (≈ 0.193 µM) | – | resistance of Bacillus thuringiensis (Bacillus thuringiensis [2]): not resistant; response of people (Bacillus anthracis [3]): responded well
C[C@@H](O)[C@H]1C(=O)N2C(C(=O)O)=C(S[C@@H]3CN[C@H](C(=O)Nc4cccc(C(=O)O)c4)C3)[C@H](C)[C@H]12 [Ertapenem, (1R,5S,6S,8R,2′S,4′S)-2-(2-(3-carboxyphenylcarbamoyl)pyrrolidin-4-ylthio)-6-(1-hydroxyethyl)-1-methylcarbapenem-3-carboxylic acid] | 0.032 (≈ 0.0673 µM) | – | susceptibility of Bacillus anthracis [1]: susceptible
C[C@@H](O)[C@H]1C(=O)N2C(C(=O)O)=C(SCCN=CN)C[C@H]12 [Imipenem, [5R-[5α,6α(R*)]]-6-(1-hydroxyethyl)-3-[[2-[(iminomethyl)amino]ethyl]thio]-7-oxo-1-azabicyclo[3.2.0]hept-2-ene-2-carboxylic acid monohydrate] | 0.047 | – | –
CCn1cc(C(=O)O)c(=O)c2cc(F)c(N3CCNCC3)cc21 [Norfloxacin] | – | – | Disk Diffusion zone (Bacillus cereus): 22 mm and 23 mm and 21 mm and 25 mm; Disk Diffusion zone (Bacillus thuringiensis [4]): 27 mm and 24 mm
CN(C)[C@@H]1C(O)=C(C(N)=O)C(=O)[C@@]2(O)C(O)=C3C(=O)c4c(O)cccc4[C@@](C)(O)[C@H]3C[C@@H]12 [Tetracycline] | 0.064 (≈ 0.144 µM) | – | –
CC1(C)S[C@@H]2[C@H](NC(=O)[C@H](N)c3ccccc3)C(=O)N2[C@H]1C(=O)O [ampicillin] | – | – | resistance of Bacillus thuringiensis (Bacillus thuringiensis [2]): resistant
O=C(N[C@H](CO)[C@H](O)c1ccc([N+](=O)[O-])cc1)C(Cl)Cl [chloramphenicol] | – | susceptible | –
CC[C@H]1OC(=O)[C@H](C)[C@@H](O[C@H]2C[C@@](C)(OC)[C@@H](O)[C@H](C)O2)[C@H](C)[C@@H](O[C@@H]2O[C@H](C)C[C@H](N(C)C)[C@H]2O)[C@](C)(O)C[C@@H](C)C(=O)[C@H](C)[C@@H](O)[C@]1(C)O [erythromycin] | – | susceptible | –
Penicillin | 0.047 | susceptible | resistance of Bacillus thuringiensis (Bacillus thuringiensis [2]): resistant
gentamicin | – | susceptible | –
